According to ChEMBL document CHEMBL5291721, “A preclinical secondary pharmacology resource illuminates target-adverse drug reaction associations of marketed drugs” (Nat Commun, 2023):

How the values were obtained:
[1] = molecular target: T1, Muscarinic acetylcholine receptor M2 (Homo sapiens, UniProt P08172)
T1 sequence (P08172 whole entry): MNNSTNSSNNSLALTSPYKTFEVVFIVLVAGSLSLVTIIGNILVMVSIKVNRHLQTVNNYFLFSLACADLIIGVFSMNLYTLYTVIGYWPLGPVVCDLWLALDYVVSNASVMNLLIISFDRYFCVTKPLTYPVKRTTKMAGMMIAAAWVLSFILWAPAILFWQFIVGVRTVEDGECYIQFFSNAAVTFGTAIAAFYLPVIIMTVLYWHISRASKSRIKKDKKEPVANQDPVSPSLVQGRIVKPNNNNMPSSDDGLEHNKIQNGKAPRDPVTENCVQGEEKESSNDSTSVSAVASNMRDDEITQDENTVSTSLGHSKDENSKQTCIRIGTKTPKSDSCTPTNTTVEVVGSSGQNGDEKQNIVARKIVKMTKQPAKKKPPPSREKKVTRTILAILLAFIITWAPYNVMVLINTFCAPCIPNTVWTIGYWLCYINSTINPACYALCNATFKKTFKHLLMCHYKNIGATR

[2] = molecular target: T2, Amine oxidase [flavin-containing] A (Homo sapiens, UniProt P21397); assay type: functional
T2 sequence (P21397 whole entry): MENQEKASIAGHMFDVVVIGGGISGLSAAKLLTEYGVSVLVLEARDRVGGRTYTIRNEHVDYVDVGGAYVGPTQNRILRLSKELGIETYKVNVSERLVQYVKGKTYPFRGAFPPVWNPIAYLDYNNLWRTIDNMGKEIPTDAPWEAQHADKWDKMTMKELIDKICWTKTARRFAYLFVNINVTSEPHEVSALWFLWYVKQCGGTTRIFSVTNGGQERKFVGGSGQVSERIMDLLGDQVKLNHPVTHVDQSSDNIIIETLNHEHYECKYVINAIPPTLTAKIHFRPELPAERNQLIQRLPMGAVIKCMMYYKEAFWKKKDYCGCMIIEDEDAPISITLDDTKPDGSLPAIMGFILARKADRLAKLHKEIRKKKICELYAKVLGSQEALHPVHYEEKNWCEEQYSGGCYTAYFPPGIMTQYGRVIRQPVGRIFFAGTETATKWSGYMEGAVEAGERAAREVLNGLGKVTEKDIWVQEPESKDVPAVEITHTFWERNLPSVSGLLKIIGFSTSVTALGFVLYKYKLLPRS

Progesterone receptor = molecular target: T3, Progesterone receptor (Homo sapiens, UniProt P06401)
T3 sequence (P06401 whole entry): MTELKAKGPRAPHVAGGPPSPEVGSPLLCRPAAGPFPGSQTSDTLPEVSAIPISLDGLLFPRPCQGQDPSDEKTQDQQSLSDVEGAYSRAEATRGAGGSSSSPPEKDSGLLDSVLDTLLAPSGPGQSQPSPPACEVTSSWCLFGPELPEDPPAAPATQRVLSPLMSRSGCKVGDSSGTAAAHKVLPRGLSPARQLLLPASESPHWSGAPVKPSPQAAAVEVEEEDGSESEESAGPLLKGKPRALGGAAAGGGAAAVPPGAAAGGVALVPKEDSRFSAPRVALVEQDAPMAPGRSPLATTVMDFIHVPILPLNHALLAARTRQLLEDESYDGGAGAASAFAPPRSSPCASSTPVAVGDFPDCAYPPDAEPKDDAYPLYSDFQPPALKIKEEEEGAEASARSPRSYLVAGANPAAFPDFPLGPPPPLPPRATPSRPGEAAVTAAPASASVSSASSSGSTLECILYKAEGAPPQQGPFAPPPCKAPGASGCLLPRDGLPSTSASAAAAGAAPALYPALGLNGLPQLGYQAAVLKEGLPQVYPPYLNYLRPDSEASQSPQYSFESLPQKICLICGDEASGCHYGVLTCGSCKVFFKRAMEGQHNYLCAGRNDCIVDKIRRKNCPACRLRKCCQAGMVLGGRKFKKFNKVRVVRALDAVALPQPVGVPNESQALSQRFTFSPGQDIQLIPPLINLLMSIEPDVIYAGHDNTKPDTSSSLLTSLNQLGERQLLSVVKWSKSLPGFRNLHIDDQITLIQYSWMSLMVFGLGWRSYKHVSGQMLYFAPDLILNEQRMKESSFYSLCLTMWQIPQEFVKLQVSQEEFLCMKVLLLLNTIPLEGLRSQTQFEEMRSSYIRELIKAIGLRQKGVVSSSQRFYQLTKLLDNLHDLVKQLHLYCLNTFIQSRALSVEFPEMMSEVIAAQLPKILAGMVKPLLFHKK

Estrogen receptor = molecular target: T4, Estrogen receptor (Homo sapiens, UniProt P03372)
T4 sequence (P03372 whole entry): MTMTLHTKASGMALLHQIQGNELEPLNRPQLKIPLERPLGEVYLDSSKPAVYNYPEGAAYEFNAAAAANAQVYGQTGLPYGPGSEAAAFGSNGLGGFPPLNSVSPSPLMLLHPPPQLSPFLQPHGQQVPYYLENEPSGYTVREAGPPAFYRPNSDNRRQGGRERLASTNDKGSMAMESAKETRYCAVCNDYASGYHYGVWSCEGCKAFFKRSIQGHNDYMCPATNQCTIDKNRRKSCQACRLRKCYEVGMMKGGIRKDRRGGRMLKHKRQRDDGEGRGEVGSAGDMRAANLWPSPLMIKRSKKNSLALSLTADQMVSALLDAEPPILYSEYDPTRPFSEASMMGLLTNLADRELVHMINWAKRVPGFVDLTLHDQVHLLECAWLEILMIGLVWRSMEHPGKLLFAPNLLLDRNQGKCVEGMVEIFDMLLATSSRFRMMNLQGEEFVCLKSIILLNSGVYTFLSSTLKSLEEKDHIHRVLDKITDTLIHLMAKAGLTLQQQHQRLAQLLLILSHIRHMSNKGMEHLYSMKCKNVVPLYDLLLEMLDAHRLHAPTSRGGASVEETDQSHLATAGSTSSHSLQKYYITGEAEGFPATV

[3] = molecular target: T5, 5-hydroxytryptamine receptor 1A (Homo sapiens, UniProt P08908)
T5 sequence (P08908 whole entry): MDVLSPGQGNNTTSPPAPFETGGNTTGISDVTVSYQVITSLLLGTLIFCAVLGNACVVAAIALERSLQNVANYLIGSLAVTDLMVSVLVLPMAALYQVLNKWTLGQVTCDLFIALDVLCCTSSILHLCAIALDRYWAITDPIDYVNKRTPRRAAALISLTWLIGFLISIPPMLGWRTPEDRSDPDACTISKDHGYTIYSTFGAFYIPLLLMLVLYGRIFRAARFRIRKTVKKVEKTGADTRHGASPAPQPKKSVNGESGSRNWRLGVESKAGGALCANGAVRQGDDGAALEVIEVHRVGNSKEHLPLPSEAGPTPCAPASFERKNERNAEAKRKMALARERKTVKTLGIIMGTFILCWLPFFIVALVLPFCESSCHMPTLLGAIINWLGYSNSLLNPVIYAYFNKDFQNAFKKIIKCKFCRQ

[4] = molecular target: Voltage-gated inwardly rectifying potassium channel KCNH2 (Homo sapiens, UniProt Q12809); assay type: functional; conditions: read-out: AC50
Chain of Voltage-gated inwardly rectifying potassium channel KCNH2 (Q12809 whole entry): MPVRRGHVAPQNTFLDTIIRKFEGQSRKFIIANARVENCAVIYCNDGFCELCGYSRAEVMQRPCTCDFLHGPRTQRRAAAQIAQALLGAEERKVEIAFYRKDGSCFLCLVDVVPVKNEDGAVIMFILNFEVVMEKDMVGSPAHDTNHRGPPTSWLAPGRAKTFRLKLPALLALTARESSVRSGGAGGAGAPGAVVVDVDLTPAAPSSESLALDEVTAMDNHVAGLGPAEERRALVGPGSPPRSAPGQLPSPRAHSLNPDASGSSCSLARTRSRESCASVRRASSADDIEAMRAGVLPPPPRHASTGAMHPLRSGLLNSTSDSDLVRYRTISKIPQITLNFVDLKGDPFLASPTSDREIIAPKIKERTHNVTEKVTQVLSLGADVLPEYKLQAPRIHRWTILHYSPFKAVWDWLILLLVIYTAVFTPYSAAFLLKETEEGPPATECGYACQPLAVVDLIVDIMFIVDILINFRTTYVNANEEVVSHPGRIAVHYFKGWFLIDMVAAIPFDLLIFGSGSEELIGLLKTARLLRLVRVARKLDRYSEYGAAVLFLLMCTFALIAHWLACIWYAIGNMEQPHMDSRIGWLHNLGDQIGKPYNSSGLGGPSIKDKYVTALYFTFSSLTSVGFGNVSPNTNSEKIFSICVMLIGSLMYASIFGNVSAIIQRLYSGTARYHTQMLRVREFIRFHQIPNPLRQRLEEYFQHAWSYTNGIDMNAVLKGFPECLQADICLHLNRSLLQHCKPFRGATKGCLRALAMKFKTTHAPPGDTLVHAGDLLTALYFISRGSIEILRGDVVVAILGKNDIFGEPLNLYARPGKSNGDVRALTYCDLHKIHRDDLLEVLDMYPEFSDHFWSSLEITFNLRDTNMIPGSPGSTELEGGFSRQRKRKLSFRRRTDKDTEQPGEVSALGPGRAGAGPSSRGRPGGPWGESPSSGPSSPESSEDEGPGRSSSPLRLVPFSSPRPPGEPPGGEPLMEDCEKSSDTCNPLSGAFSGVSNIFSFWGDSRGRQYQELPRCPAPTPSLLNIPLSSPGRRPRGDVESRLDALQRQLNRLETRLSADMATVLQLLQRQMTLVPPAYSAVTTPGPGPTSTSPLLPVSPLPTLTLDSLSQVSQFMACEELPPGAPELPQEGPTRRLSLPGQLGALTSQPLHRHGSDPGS
Further: assay procedure not described here.

SMILES | AC50 [1] [µM] | AC50 [2] [µM] | AC50 (Progesterone receptor) [µM] | AC50 (Estrogen receptor) [µM] | AC50 [3] [µM] | AC50 [4] [µM]
C[C@@H](O)[C@H]1C(=O)N2C(C(=O)O)=C(S[C@@H]3CN[C@H](C(=O)Nc4cccc(C(=O)O)c4)C3)[C@H](C)[C@H]12 | > 30 | > 30 | > 30 | 15.9 | > 30 | 
Cc1ccc2c([nH]c(=O)c3c(=O)cc(C(=O)OCCC(C)C)oc32)c1C | 11.8 | > 30 | > 30 | > 30 | > 30 | 23
COC(=O)N[C@H](C(=O)N1CC2(CC2)C[C@H]1c1ncc(-c2ccc3c(c2)C(F)(F)c2cc(-c4ccc5nc([C@@H]6[C@H]7CC[C@H](C7)N6C(=O)[C@@H](NC(=O)OC)C(C)C)[nH]c5c4)ccc2-3)[nH]1)C(C)C | > 30 | > 30 | > 10 | > 30 | > 30 | > 30
CC(=O)OC1CN2CCC1CC2 (stereo not given) [ACECLIDINE] |  | > 30 | > 30 | > 30 | > 30 | 
Cc1cnc(C(=O)O)c[n+]1[O-] [ACIPIMOX] | > 30 | > 30 | > 30 | > 30 | > 30 | > 30
N=C(N)NC(=O)c1nc(Cl)c(N)nc1N [AMILORIDE] | > 30 | 5.24 | > 30 | > 30 | 11.1 | 
Nc1ccc(C(=O)NCC(=O)O)cc1 [AMINOHIPPURIC ACID] | > 30 | > 30 | > 30 | > 30 | > 30 | > 30
CC1(C)S[C@@H]2[C@H](NC(=O)[C@H](NC(=O)c3cnc4cccnc4c3O)c3ccccc3)C(=O)N2[C@H]1C(=O)O [APALCILLIN] | > 30 | > 30 | > 30 | > 30 | > 30 | 
Cn1c(CCCC(=O)O)nc2cc(N(CCCl)CCCl)ccc21 [BENDAMUSTINE] | > 30 | > 30 | > 30 | > 30 | > 30 | 
O=C(OOC(=O)c1ccccc1)c1ccccc1 [BENZOYL PEROXIDE] | > 30 | > 30 | > 30 | > 30 | > 30 | > 30
OCc1ccccc1 [BENZYL ALCOHOL] | > 30 | > 30 | > 30 | > 30 | > 30 | > 30
